Experiments:
ABUTH (Velvetleaf) [1] = assay: Postemergence herbicidal evaluation; format: in vivo, Abutilon theophrasti; conditions: for ABUTH herbicidal rating: postemergence
How it was run: (§1)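 Rate range approx. 0.0156–0.500 kg/ha. Foliar application at 40 psi to ~2-week seedlings; surfactant 0.5% TWEEN 20 in 50/50 acetone/water. Evaluation 4–5 wk post-treatment by 0–9 visual injury score, means of replicate tests.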

[2] = test system: IPOHE (Morningglory, Ivyleaf); assay: Postemergence herbicidal evaluation; format: in vivo, Ipomoea hederacea; conditions: for IPOHE herbicidal rating: postemergence
How it was run: as §1

SETVI (Foxtail, Green) = assay: Postemergence herbicidal evaluation; format: in vivo, Setaria viridis; conditions: for SETVI herbicidal rating: postemergence
How it was run: as §1

[3] = test system: GLXMAW (Soybean, Williams); assay: Postemergence herbicidal evaluation; format: in vivo, Glycine max, (L.) Merr. cv Williams; conditions: for GLXMAW herbicidal rating: postemergence
How it was run: as §1

ZEAMX (Corn, Field) = assay: Postemergence herbicidal evaluation; format: in vivo, Zea mays; conditions: for ZEAMX herbicidal rating: postemergence
How it was run: as §1

ABUTH (Velvetleaf) [4] = assay: Preemergence herbicidal evaluation; format: in vivo, Abutilon theophrasti; conditions: rated 4-5 weeks after treatment; for ABUTH rating: preemergence, 0-9 scale
How it was run: (§2)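 In this greenhouse assay, monocot and dicot seeds are planted in soil and treated prior to emergence with an aqueous acetone spray (about 0.0156-0.500 kg/ha). Plants are assessed visually against control on a 0-9 scale after 4-5 weeks.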

AMBEL (Ragweed, Common) = assay: Preemergence herbicidal evaluation; format: in vivo, Ambrosia artemisifolia; conditions: rated 4-5 weeks after treatment; for AMBEL rating: preemergence, 0-9 scale
How it was run: as §2

CASOB (Sicklepod) = assay: Preemergence herbicidal evaluation; format: in vivo, Cassia obtusifolia; conditions: rated 4-5 weeks after treatment; for CASOB rating: preemergence, 0-9 scale
How it was run: as §2

[5] = test system: IPOHE (Morningglory, Ivyleaf); assay: Preemergence herbicidal evaluation; format: in vivo, Ipomoea hederacea; conditions: rated 4-5 weeks after treatment; for IPOHE rating: preemergence, 0-9 scale
How it was run: as §2

ECHCG (Barnyardgrass) = assay: Preemergence herbicidal evaluation; format: in vivo, Echinochloa crus-galli; conditions: rated 4-5 weeks after treatment; for ECHCG rating: preemergence, 0-9 scale
How it was run: as §2

[6] = test system: ECHORC (Watergrass (Calif.)); assay: Preemergence weed control under flooded paddy conditions; format: in vivo, Echinochloa oryzoides; conditions: rated 3-4 weeks after treatment
How it was run: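 Flooded-pot preemergence screen with silt loam and seeds in the upper 0.5 cm. Dose about 0.0313 to 0.500 kg/ha, delivered into flood water; visual 0-9 score after 3 to 4 weeks.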

CYPSE (Flatsedge) = assay: as above; format: in vivo, Cyperus serotinus; conditions: rated 3-4 weeks after treatment
How it was run: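 Values are visual 0-9 scores against a control for a preemergence application into paddy flood water at about 0.0313 to 0.500 kg/ha. Greenhouse duration was three to four weeks.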

[7] = test system: ECHORC (Watergrass (Calif.)); assay: Postemergence weed control under flooded paddy conditions; format: in vivo, Echinochloa oryzoides; conditions: postemergence weeds
How it was run: (§3)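 With weeds 3 to 5 cm tall and rice at the 1.5 to 2.5 leaf stage, containers were flooded and water held 1.5 to 3 cm above soil. Compounds in 50/50 v/v aqueous/acetone went into the flood water at about 0.0313 to 0.500 kg/ha a.i. Effects were visually rated 0–9 against controls after three to four weeks in the greenhouse.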

CYPIR (Rice Flatsedge) = assay: as above; format: in vivo, Cyperus iria; conditions: postemergence weeds
How it was run: as §3

[8] = rate 0.0313 kg/ha, 3-4 weeks after treatment
[9] = rate 0.0625 kg/ha, 3-4 weeks after treatment
[10] = rate 0.1250 kg/ha, 3-4 weeks after treatment
[11] = rate 0.2500 kg/ha, 3-4 weeks after treatment
[12] = Rate 0.0313 kg/ha, rated 3 to 4 weeks after treatment
[13] = Rate 0.0625 kg/ha, rated 3 to 4 weeks after treatment
[14] = Rate 0.1250 kg/ha, rated 3 to 4 weeks after treatment
[15] = Rate 0.2500 kg/ha, rated 3 to 4 weeks after treatment

Structure (SMILES): CCOC(=O)CN1C(=O)C(Cc2ccccc2OC(C)C(=O)OC)SC1=Nc1cc(-n2c(=O)cc(C(F)(F)F)n(C)c2=O)c(F)cc1Cl (stereo not drawn) [Compound 50, 2-{{2-Chloro-5-[3,6-dihydro-3-methyl-2,6-dioxo-4-(trifluoromethyl)-1(2H)-pyrimidinyl]-4-fluoro-phenyl}imino}-5-(o-hydroxybenzyl)-4-oxo-3-thiazolidineacetic acid, ethyl ester, ester with methyl lactate]
- Postemergence herbicidal rating ABUTH (ABUTH (Velvetleaf) [1]; Rate 0.0156 kg/ha): 6.0
- Postemergence herbicidal rating ABUTH (ABUTH (Velvetleaf) [1]; Rate 0.0313 kg/ha): 9.0
- Postemergence herbicidal rating ABUTH (ABUTH (Velvetleaf) [1]; Rate 0.0625 kg/ha): 9.0
- Postemergence herbicidal rating IPOHE ([2]; Rate 0.0156 kg/ha): 9.0
- Postemergence herbicidal rating IPOHE ([2]; Rate 0.0313 kg/ha): 9.0
- Postemergence herbicidal rating IPOHE ([2]; Rate 0.0625 kg/ha): 9.0
- Postemergence herbicidal rating SETVI (SETVI (Foxtail, Green); Rate 0.0156 kg/ha): 0.0
- Postemergence herbicidal rating SETVI (SETVI (Foxtail, Green); Rate 0.0313 kg/ha): 0.0
- Postemergence herbicidal rating SETVI (SETVI (Foxtail, Green); Rate 0.0625 kg/ha): 2.0
- Postemergence herbicidal rating GLXMAW ([3]; Rate 0.0156 kg/ha): 5.5
- Postemergence herbicidal rating GLXMAW ([3]; Rate 0.0313 kg/ha): 5.5
- Postemergence herbicidal rating GLXMAW ([3]; Rate 0.0625 kg/ha): 5.5
- Postemergence herbicidal rating ZEAMX (ZEAMX (Corn, Field); Rate 0.0156 kg/ha): 5.0
- Postemergence herbicidal rating ZEAMX (ZEAMX (Corn, Field); Rate 0.0313 kg/ha): 5.0
- Postemergence herbicidal rating ZEAMX (ZEAMX (Corn, Field); Rate 0.0625 kg/ha): 5.5
- Preemergence herbicidal rating ABUTH (ABUTH (Velvetleaf) [4]; rate 0.0625 kg/ha): 9.0
- Preemergence herbicidal rating ABUTH (ABUTH (Velvetleaf) [4]; rate 0.1250 kg/ha): 9.0
- Preemergence herbicidal rating ABUTH (ABUTH (Velvetleaf) [4]; rate 0.2500 kg/ha): 9.0
- Preemergence herbicidal rating AMBEL (AMBEL (Ragweed, Common); rate 0.0625 kg/ha): 0.0
- Preemergence herbicidal rating AMBEL (AMBEL (Ragweed, Common); rate 0.1250 kg/ha): 0.0
- Preemergence herbicidal rating AMBEL (AMBEL (Ragweed, Common); rate 0.2500 kg/ha): 0.0
- Preemergence herbicidal rating CASOB (CASOB (Sicklepod); rate 0.0625 kg/ha): 0.0
- Preemergence herbicidal rating CASOB (CASOB (Sicklepod); rate 0.1250 kg/ha): 9.0
- Preemergence herbicidal rating CASOB (CASOB (Sicklepod); rate 0.2500 kg/ha): 9.0
- Preemergence herbicidal rating IPOHE ([5]; rate 0.0625 kg/ha): 0.0
- Preemergence herbicidal rating IPOHE ([5]; rate 0.1250 kg/ha): 0.0
- Preemergence herbicidal rating IPOHE ([5]; rate 0.2500 kg/ha): 0.0
- Preemergence herbicidal rating ECHCG (ECHCG (Barnyardgrass); rate 0.0625 kg/ha): 0.0
- Preemergence herbicidal rating ECHCG (ECHCG (Barnyardgrass); rate 0.1250 kg/ha): 0.0
- Preemergence herbicidal rating ECHCG (ECHCG (Barnyardgrass); rate 0.2500 kg/ha): 0.0
- Herbicidal rating ECHORC ([6]; 0.0313 kg/ha): 4.0
- Herbicidal rating ECHORC ([6]; 0.0625 kg/ha): 7.0
- Herbicidal rating ECHORC ([6]; 0.1250 kg/ha): 7.0
- Herbicidal rating ECHORC ([6]; 0.2500 kg/ha): 7.0
- Herbicidal rating CYPSE (CYPSE (Flatsedge); 0.0313 kg/ha): 0.0
- Herbicidal rating CYPSE (CYPSE (Flatsedge); 0.0625 kg/ha): 0.0
- Herbicidal rating CYPSE (CYPSE (Flatsedge); 0.1250 kg/ha): 0.0
- Herbicidal rating CYPSE (CYPSE (Flatsedge); 0.2500 kg/ha): 0.0
- Herbicidal rating ECHORC [7, 8]: 4.0
- Herbicidal rating ECHORC [7, 9]: 7.0
- Herbicidal rating ECHORC [7, 10]: 7.0
- Herbicidal rating ECHORC [7, 11]: 7.0
- Herbicidal rating CYPIR (CYPIR (Rice Flatsedge); [8]): 0.0
- Herbicidal rating CYPIR (CYPIR (Rice Flatsedge); [9]): 0.0
- Herbicidal rating CYPIR (CYPIR (Rice Flatsedge); [10]): 0.0
- Herbicidal rating CYPIR (CYPIR (Rice Flatsedge); [11]): 0.0

Structure (SMILES): CCOC(=O)CN1C(=O)C(CC(=O)OCCF)SC1=Nc1cc(-n2c(=O)cc(C(F)(F)F)n(C)c2=O)c(F)cc1Cl (stereo not drawn) [Compound 82, 2-{{2-Chloro-5-[3,6-dihydro-3-methyl-2,6-dioxo-4-(trifluoromethyl)-1(2H)-pyrimidinyl]-4-fluoro-phenyl}imino}-4-oxo-3,5-thiazolidinediacetic acid, 3-ethyl 2-fluoroethyl ester]
- ABUTH herbicidal rating (ABUTH (Velvetleaf) [1]; rate 0.0158 kg/ha): 9.0
- ABUTH herbicidal rating (ABUTH (Velvetleaf) [1]; rate 0.0315 kg/ha): 9.0
- ABUTH herbicidal rating (ABUTH (Velvetleaf) [1]; rate 0.0630 kg/ha): 9.0
- IPOHE herbicidal rating ([2]; rate 0.0158 kg/ha): 9.0
- IPOHE herbicidal rating ([2]; rate 0.0315 kg/ha): 9.0
- IPOHE herbicidal rating ([2]; rate 0.0630 kg/ha): 9.0
- SETVI herbicidal rating (SETVI (Foxtail, Green); rate 0.0158 kg/ha): 9.0
- SETVI herbicidal rating (SETVI (Foxtail, Green); rate 0.0315 kg/ha): 9.0
- SETVI herbicidal rating (SETVI (Foxtail, Green); rate 0.0630 kg/ha): 9.0
- GLXMAW herbicidal rating ([3]; rate 0.0158 kg/ha): 8.5
- GLXMAW herbicidal rating ([3]; rate 0.0315 kg/ha): 9.0
- GLXMAW herbicidal rating ([3]; rate 0.0630 kg/ha): 9.0
- ZEAMX herbicidal rating (ZEAMX (Corn, Field); rate 0.0158 kg/ha): 8.5
- ZEAMX herbicidal rating (ZEAMX (Corn, Field); rate 0.0315 kg/ha): 8.5
- ZEAMX herbicidal rating (ZEAMX (Corn, Field); rate 0.0630 kg/ha): 9.0
- ABUTH rating (ABUTH (Velvetleaf) [4]; 0.0156 kg/ha): 3.0
- ABUTH rating (ABUTH (Velvetleaf) [4]; 0.0313 kg/ha): 9.0
- ABUTH rating (ABUTH (Velvetleaf) [4]; 0.0625 kg/ha): 9.0
- ABUTH rating (ABUTH (Velvetleaf) [4]; 0.1250 kg/ha): 9.0
- ABUTH rating (ABUTH (Velvetleaf) [4]; 0.2500 kg/ha): 9.0
- AMBEL rating (AMBEL (Ragweed, Common); 0.0156 kg/ha): 0.0
- AMBEL rating (AMBEL (Ragweed, Common); 0.0313 kg/ha): 2.0
- AMBEL rating (AMBEL (Ragweed, Common); 0.0625 kg/ha): 3.0
- AMBEL rating (AMBEL (Ragweed, Common); 0.1250 kg/ha): 9.0
- AMBEL rating (AMBEL (Ragweed, Common); 0.2500 kg/ha): 9.0
- CASOB rating (CASOB (Sicklepod); 0.0156 kg/ha): 0.0
- CASOB rating (CASOB (Sicklepod); 0.0313 kg/ha): 0.0
- CASOB rating (CASOB (Sicklepod); 0.0625 kg/ha): 3.0
- CASOB rating (CASOB (Sicklepod); 0.1250 kg/ha): 9.0
- CASOB rating (CASOB (Sicklepod); 0.2500 kg/ha): 9.0
- IPOHE rating ([5]; 0.0156 kg/ha): 0.0
- IPOHE rating ([5]; 0.0313 kg/ha): 0.0
- IPOHE rating ([5]; 0.0625 kg/ha): 4.0
- IPOHE rating ([5]; 0.1250 kg/ha): 9.0
- IPOHE rating ([5]; 0.2500 kg/ha): 9.0
- ECHCG rating (ECHCG (Barnyardgrass); 0.0156 kg/ha): 0.0
- ECHCG rating (ECHCG (Barnyardgrass); 0.0313 kg/ha): 0.0
- ECHCG rating (ECHCG (Barnyardgrass); 0.0625 kg/ha): 0.0
- ECHCG rating (ECHCG (Barnyardgrass); 0.1250 kg/ha): 3.0
- ECHCG rating (ECHCG (Barnyardgrass); 0.2500 kg/ha): 7.0
- ECHORC herbicidal effect rating ([6]; 0.0313 kg/ha): 4.0
- ECHORC herbicidal effect rating ([6]; 0.0625 kg/ha): 4.0
- ECHORC herbicidal effect rating ([6]; 0.1250 kg/ha): 6.0
- ECHORC herbicidal effect rating ([6]; 0.2500 kg/ha): 9.0
- CYPSE herbicidal effect rating (CYPSE (Flatsedge); 0.0313 kg/ha): 0.0
- CYPSE herbicidal effect rating (CYPSE (Flatsedge); 0.0625 kg/ha): 0.0
- CYPSE herbicidal effect rating (CYPSE (Flatsedge); 0.1250 kg/ha): 2.0
- CYPSE herbicidal effect rating (CYPSE (Flatsedge); 0.2500 kg/ha): 4.0
- Herbicidal rating ECHORC [7, 12]: 4.0
- Herbicidal rating ECHORC [7, 13]: 4.0
- Herbicidal rating ECHORC [7, 14]: 6.0
- Herbicidal rating ECHORC [7, 15]: 9.0
- Herbicidal rating CYPIR (CYPIR (Rice Flatsedge); [12]): 0.0
- Herbicidal rating CYPIR (CYPIR (Rice Flatsedge); [13]): 0.0
- Herbicidal rating CYPIR (CYPIR (Rice Flatsedge); [14]): 3.0
- Herbicidal rating CYPIR (CYPIR (Rice Flatsedge); [15]): 3.0

Source: patent US20020137929A1, “1 - (3-heterocyclylphenyl) isothiourea, -isourea, -guanidine and -amidine herbicidal agents” (Intellectual Property Department, BASF Aktiengesellschaft, priority 1998, published 2002)
